Here are results for one compound from BindingDB's records for doi:10.1021/jm201449n (Cephalon, 2012).

pIC50: −log10 of the molar value.

The target in this test is Mitogen-activated protein kinase kinase kinase 7 (TAK1/MAP3K7) (Homo sapiens) (UniProt O43318). In words: Inhibition of human TAK1 using ATP as substrate.
Chain of Mitogen-activated protein kinase kinase kinase 7 (TAK1/MAP3K7) (Homo sapiens) (O43318 whole entry, looked up): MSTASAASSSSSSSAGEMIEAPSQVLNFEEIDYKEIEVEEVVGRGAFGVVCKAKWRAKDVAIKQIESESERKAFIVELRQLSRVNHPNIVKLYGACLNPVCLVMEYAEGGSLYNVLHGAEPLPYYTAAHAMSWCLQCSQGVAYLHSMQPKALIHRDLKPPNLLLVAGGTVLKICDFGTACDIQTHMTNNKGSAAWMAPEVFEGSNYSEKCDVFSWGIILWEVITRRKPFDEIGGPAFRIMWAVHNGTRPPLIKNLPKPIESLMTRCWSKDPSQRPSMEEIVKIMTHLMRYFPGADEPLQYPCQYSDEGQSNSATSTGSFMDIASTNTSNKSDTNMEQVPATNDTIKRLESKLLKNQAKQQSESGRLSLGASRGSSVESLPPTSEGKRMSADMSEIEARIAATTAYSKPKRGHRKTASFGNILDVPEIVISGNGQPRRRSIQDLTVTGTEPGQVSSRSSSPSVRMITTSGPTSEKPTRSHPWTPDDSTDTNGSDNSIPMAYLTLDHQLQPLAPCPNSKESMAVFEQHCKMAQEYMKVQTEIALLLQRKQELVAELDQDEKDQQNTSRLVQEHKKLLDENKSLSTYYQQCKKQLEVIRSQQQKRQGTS

A word on the pIC50: it is the negative decadic logarithm of the IC50, by convention in mol/L. Read a high pIC50 as a small IC50. `CC(C)Cn1c2ccc(Nc3ncccn3)cc2c2c3c(c4c(c21)CCc1nn(C)cc1-4)C(=O)NC3` [CEP-11981] gave a pIC50 of 7.85.
